Measured values taken from patent US5075287A, “Muramyl peptide derivatives and immunoregulating compositions containing them” (priority 1989, dated 1991).
Like-named read-outs stand apart in the source and are kept apart here.

How the values were obtained:
[1] = test system: hepatitis B virus surface antigen (HBs); test: Hepatitis-vaccine enhancing activity (adjuvant activity): anti-HBs IgG in mouse serum by ELISA; type: in vivo, female CDF1 mice; conditions: Experiment 1, 5000-fold dilution
Summary of the method: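 Female CDF1 mice (n=7) given 0.2 ml i.p. of compound in lipid microspheres (1 mg/ml) mixed 1:1 with HBs antigen (50 μg/ml), boosted identically at 3 weeks. Sera from weekly fundus bleeds before and after boost. Anti-HBs IgG measured by ELISA.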

[2] = test system: influenza HA vaccine (B/Nagasaki/1/87 strain); type: in vivo, female CDF1 mice; conditions: Experiment 1, 5000-fold dilution
[3] = test system: L-1210 mouse leukemia cells; test: Activation of macrophages (growth inhibition of tumor cells by intraperitoneal macrophages of treated mice, MTT assay); type: cell-based; conditions: macrophages taken 3 days after i.p. 0.2 ml of 500 μg/ml, macrophage:L-1210 20:1, 72 hours
Experimental: A compound of the present invention was dissolved in lipidmicrosphere to obtain a solution in a concentration of 500μg/ml, and 0.2 ml of such solution was intraperitoneally administered to each mouse in one group consisting of seven female CDF1 mice. Intraperitoneal macrophages obtained three days after the administration and L-1210 mouse leukemia cells were mixed in the ratio of cell numbers of 20:1, respectively. Two hundred μl of the mixture was placed in each well of one sheet of 96 well microtiter plate. After 72 hours, the increase of the cell number in each well was determined by a MTT assay method. The ratio of the cell number for the mixture of the L-1210 cells and the macrophage relative to the cell number for the L-1210 cells only(growth inhibitory ratio) was determined, and the results are shown in Table 3.

[4] = 1 W after i.p. administration, compound in lipidmicrosphere + HBs
[5] = 4 W (after secondary stimulation at 3 weeks)
[6] = 5 W (after secondary stimulation at 3 weeks)
[7] = 1 W after i.p. administration, compound in lipidmicrosphere + HA vaccine

Structure (SMILES) | Anti-HBs IgG antibody level in serum (ELISA absorbance at 415 nm) [1, 4] [O.D 415 nm] | Anti-HBs IgG antibody level in serum (ELISA absorbance at 415 nm) ([1]; 2 W) [O.D 415 nm] | Anti-HBs IgG antibody level in serum (ELISA absorbance at 415 nm) ([1]; 3 W) [O.D 415 nm] | Anti-HBs IgG antibody level in serum (ELISA absorbance at 415 nm) [1, 5] [O.D 415 nm] | Anti-HBs IgG antibody level in serum (ELISA absorbance at 415 nm) [1, 6] [O.D 415 nm] | Anti HA serum antigen value (average value ± S.D.) [2, 7] [O.D 415 nm] | Anti HA serum antigen value (average value ± S.D.) ([2]; 2 W) [O.D 415 nm] | Anti HA serum antigen value (average value ± S.D.) ([2]; 3 W) [O.D 415 nm] | Anti HA serum antigen value (average value ± S.D.) [2, 5] [O.D 415 nm] | Anti HA serum antigen value (average value ± S.D.) [2, 6] [O.D 415 nm] | Growth inhibitory ratio of L-1210 mouse leukemia cells [3] [%]
CCCCCCCCCCCCCCC(CCCCCCCCCCCCCC)C(=O)S[C@@H]1O[C@H](COC(=O)CCCCCCCCC)[C@@H](O)[C@H](O[C@H](C)C(=O)N[C@@H](C)C(=O)N[C@H](CCC(=O)OC)C(N)=O)[C@H]1NC(C)=O [Example 8, N-[2-0-{2-Acetamido-2,3-dideoxy-6-0-decanoyl-1-S-(2-tetradecylhexadecanoyl)-1-thio-β-D-glucopyranos-3--yl}-D-lactoyl]-L-alanyl-D-isoglutamine methylester] | 0 | 0.067 ± 0.003 | 0.114 ± 0.002 | 0.897 ± 0.012 | 0.845 ± 0.016 | 0.001 ± 0.001 | 0.105 ± 0.005 | 0.246 ± 0.004 | 1.246 ± 0.019 | 1.267 ± 0.023 | 57.9
CCCCCCCCCCCCCCC(CCCCCCCCCCCCCC)C(=O)S[C@@H]1O[C@H](COC(=O)CCCCCCCCCCCCC)[C@@H](O)[C@H](O[C@H](C)C(=O)N[C@@H](C)C(=O)N[C@H](CCC(=O)OC)C(N)=O)[C@H]1NC(C)=O [Example 9, N-[2-0-{2-Acetamido-2,3-dideoxy-6-0-tetradecanoyl-1-S-(2-tetradcylhexadecanoyl)-1-thio-β-D-glucopyranos-3-yl}-D-lactoyl]-L-alanyl-D-isoglutamine methylester] | 0.014 ± 0.002 | 0.092 ± 0.003 | 0.149 ± 0.001 | 0.681 ± 0.012 | 0.702 ± 0.006 | 0.019 ± 0.002 | 0.168 ± 0.005 | 0.392 ± 0.006 | 1.342 ± 0.005 | 1.329 ± 0.026 | 58.5
CCCCCCCCCCCCCCCCCC(=O)OC[C@H]1O[C@@H](SC(=O)C(CCCCCCCCCCCCCC)CCCCCCCCCCCCCC)[C@H](NC(C)=O)[C@@H](O[C@H](C)C(=O)N[C@@H](C)C(=O)N[C@H](CCC(=O)OC)C(N)=O)[C@@H]1O [Example 10, N-[2-0-{2-Acetamido-2,3-dideoxy-6-0-octadecanoyl-1-S-(2-tetradecylhexadecanoyl)-1-thio-β-D-glucopyranos-3-yl}-D-lactoyl]-L-alanyl-D-isoglutamine methylester] | 0 | 0.061 ± 0.002 | 0.114 ± 0.003 | 0.778 ± 0.024 | 0.878 ± 0.009 | 0.005 ± 0.001 | 0.153 ± 0.003 | 0.280 ± 0.000 | 1.149 ± 0.018 | 1.203 ± 0.014 | 76.6
CCCCCCCCCCCCCC(=O)O[C@H](CCCCCCCCCCC)CC(=O)O[C@H]1O[C@H](COC(=O)CCCCCCCCC)[C@@H](O)[C@H](O[C@H](C)C(=O)N[C@@H](C)C(=O)N[C@H](CCC(=O)OC)C(N)=O)[C@H]1NC(C)=O [Example 11, N-[2-0-{2-Acetamido-2,3-dideoxy-6-0-decanoyl-1-0((3R)-3-tetradecanoyloxytetradecanoyl)-α-D-glucopyranos-3-yl}-D-lactoyl]-L-alanyl-D-isoglutaminemethylester] | 0.010 ± 0.002 | 0.083 ± 0.002 | 0.124 ± 0.003 | 0.602 ± 0.009 | 0.716 ± 0.020 | 0 | 0.073 ± 0.000 | 0.160 ± 0.005 | 1.059 ± 0.016 | 1.050 ± 0.003 | 59.7
CCCCCCCCCCCCCC(=O)OC[C@H]1O[C@H](OC(=O)C[C@@H](CCCCCCCCCCC)OC(=O)CCCCCCCCCCCCC)[C@H](NC(C)=O)[C@@H](O[C@H](C)C(=O)N[C@@H](C)C(=O)N[C@H](CCC(=O)OC)C(N)=O)[C@@H]1O [Example 12, N-[2-0-{2-Acetamido-2,3-dideoxy-6-0-tetradecanoyl-1-0-((3R)-3-tetradecanoyloxytetradecanoyl)-α-D-glucopyranos-3yl}-D-lactoyl]-L-alanyl-D-isoglutamine methylester] | 0.007 ± 0.003 | 0.109 ± 0.002 | 0.111 ± 0.001 | 0.608 ± 0.021 | 0.695 ± 0.021 | 0 | 0.105 ± 0.004 | 0.176 ± 0.002 | 1.039 ± 0.015 | 1.050 ± 0.008 | 79.0
CCCCCCCCCCCCCCCCCC(=O)OC[C@H]1O[C@H](OC(=O)C[C@@H](CCCCCCCCCCC)OC(=O)CCCCCCCCCCCCC)[C@H](NC(C)=O)[C@@H](O[C@H](C)C(=O)N[C@@H](C)C(=O)N[C@H](CCC(=O)OC)C(N)=O)[C@@H]1O [Example 13, N-[2-0-{2-Acetamido-2,3-dideoxy-6-0-octadecanoyl-1-0-((3R)-3-tetradecanoyloxytetradecanoyl)-α-D-glucopyranos-3-yl}-D-lactoyl]-L-alanyl-D-isoglutamine methylester] | 0 | 0.081 ± 0.003 | 0.126 ± 0.003 | 0.635 ± 0.011 | 0.742 ± 0.016 | 0 | 0.088 ± 0.004 | 0.140 ± 0.001 | 0.868 ± 0.010 | 0.824 ± 0.002 | 39.7
